Measured values published in publication PMC6937593, “Anti-metastatic Inhibitors of Lysyl Oxidase (LOX): Design and Structure–Activity Relationships” (Journal of Medicinal Chemistry, 2019).
Values joined by “and” are separate entries in the source; they are usually repeats but may differ in a detail not shown here. Equal entries are not always repeated. Structures can show the parent of a compound that is named as a salt. Where two headings read alike, the source gives them in different places. Values belong to the compound of their own block, whether it stands above or below them.

How the values were obtained:
[1] = target: T1, LOX (Sus scrofa, UniProt P45845); assay: LOX enzyme activity assay (HRP-coupled fluorescent, cadaverine substrate); assay type: biochemical, pig; settings: for fold more potent than HTS hit 2a (LOX IC50): vs 2a;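 for all read-outs here: LOX isolated from porcine skin, nine-point dilution series starting at 100 µM, 20 min preincubation with enzyme, BAPN serving as positive control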
T1 construct: LOX enzyme was extracted from pig skin by the method of Shackleton and Hulmes; from tissue; host or cells: pig skin
T1 sequence (P45845 1-249): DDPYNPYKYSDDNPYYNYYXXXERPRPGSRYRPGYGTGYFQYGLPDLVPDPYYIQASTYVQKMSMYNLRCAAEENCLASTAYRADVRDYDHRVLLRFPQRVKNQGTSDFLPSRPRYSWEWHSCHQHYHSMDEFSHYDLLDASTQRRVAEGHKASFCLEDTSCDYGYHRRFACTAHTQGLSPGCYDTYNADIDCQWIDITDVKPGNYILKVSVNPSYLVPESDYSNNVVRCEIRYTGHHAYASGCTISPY

[2] = MLM stability assay; assay type: in vitro ADME, mouse; settings: percentage of compound remaining after 30 min; 10 μM
[3] = In vivo PK in mice; set-up: species or system mouse; settings: mouse plasma, single oral gavage dose 50 mg/kg
[4] = target: T2, DAO (Sus scrofa, UniProt Q9TRC7); assay: biochemical; settings: n = 2 individual values
T2 construct: purchased Sigma
T2 sequence (Q9TRC7 25-755): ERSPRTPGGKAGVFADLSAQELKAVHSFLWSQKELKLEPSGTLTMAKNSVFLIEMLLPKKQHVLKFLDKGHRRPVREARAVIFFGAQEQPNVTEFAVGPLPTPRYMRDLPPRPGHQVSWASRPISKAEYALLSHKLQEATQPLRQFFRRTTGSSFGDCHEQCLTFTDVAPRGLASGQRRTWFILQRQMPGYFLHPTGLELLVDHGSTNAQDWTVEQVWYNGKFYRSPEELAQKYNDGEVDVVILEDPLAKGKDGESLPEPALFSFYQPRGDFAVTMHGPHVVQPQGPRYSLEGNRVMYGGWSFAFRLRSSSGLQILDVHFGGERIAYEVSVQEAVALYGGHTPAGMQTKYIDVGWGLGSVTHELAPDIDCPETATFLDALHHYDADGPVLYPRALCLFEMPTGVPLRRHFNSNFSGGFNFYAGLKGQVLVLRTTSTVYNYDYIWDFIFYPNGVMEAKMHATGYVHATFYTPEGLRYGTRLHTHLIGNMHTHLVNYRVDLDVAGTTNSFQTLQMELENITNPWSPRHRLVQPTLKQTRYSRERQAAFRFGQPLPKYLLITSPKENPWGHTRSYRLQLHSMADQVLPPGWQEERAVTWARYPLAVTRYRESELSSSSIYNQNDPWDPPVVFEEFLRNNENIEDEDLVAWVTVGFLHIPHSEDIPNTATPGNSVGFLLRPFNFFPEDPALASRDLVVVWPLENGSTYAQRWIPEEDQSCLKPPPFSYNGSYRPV

[5] = n ≥ 2, n = 2: individual values, n > 2: geometric mean [95% CI], 20 min preincubation, read-out: LOX IC50

IC50 [1, 5]: 0.93 µM
MLM stability (%) [2]: 37%
Compound: CS(=O)(=O)N1CCCN(S(=O)(=O)c2ccc(CN)s2)CC1 [2m, (5-(4-(Methylsulfonyl)-1,4-diazepan-1-ylsulfonyl)thiophen-2-yl)methanamine]

IC50 [1, 5]: 2.1 µM
Compound: CCNC(=O)N1CCCN(S(=O)(=O)c2ccc(CN)s2)CC1 [2l, 4-(5-(Aminomethyl)thiophen-2-ylsulfonyl)-N-ethyl-1,4-diazepane-1-carboxamide]

IC50 [1, 5]: > 100 µM
Compound: NC(=O)c1ccc(S(=O)(=O)c2ccccc2)s1 [6e, 5-(Phenylsulfonyl)thiophene-2-carboxamide]

Compound: CC(C)(C)Oc1cc(S(C)(=O)=O)cc(S(=O)(=O)c2ccc(CN)s2)c1 [9b, (5-((3-(tert-Butoxy)-5-(methylsulfonyl)phenyl)sulfonyl)thiophen-2-yl)methanamine]
AUC(PO) [3]: 2.3 µM·h
Cmax [3]: 6.3 µM
MLM stability (%) [2]: 67%

IC50 [1, 5]: > 100 µM
Compound: O=S(=O)(c1ccc2ccccc2c1)c1ccc(/C=N/O)s1 [6f, 5-(Naphthalen-2-ylsulfonyl)thiophene-2-carbaldehyde Oxime]

IC50 [1, 5]: 11 µM and 13 µM
Compound: NCc1ccc(S(=O)(=O)N2CCC[C@H]2C(N)=O)s1 [2d, (S)-1-(5-(Aminomethyl)thiophen-2-ylsulfonyl)pyrrolidine-2-carboxamide]

IC50 [1, 5]: > 100 µM
Compound: N#Cc1ccc(S(=O)(=O)c2ccccc2)s1 [6c, 5-(Phenylsulfonyl)thiophene-2-carbonitrile]

AUC(PO) [3]: 6.5 µM·h
Cmax [3]: 16 µM
MLM stability (%) [2]: 68%
Compound: CC(C)(C)c1cc(S(C)(=O)=O)cc(S(=O)(=O)c2ccc(CN)s2)c1 [9a, (5-((3-(tert-Butyl)-5-(methylsulfonyl)phenyl)sulfonyl)thiophen-2-yl)methanamine]

IC50 [1, 5]: > 100 µM
Compound: CC(N)c1ccc(S(=O)(=O)c2ccccc2)s1 (stereo not shown) [6b, 1-(5-(Phenylsulfonyl)thiophen-2-yl)ethanamine]

IC50 [1, 5]: 12 µM and 13 µM
Compound: Cc1cc(CN)sc1S(=O)(=O)N1CCc2ccccc21 [5f, (5-(Indolin-1-ylsulfonyl)-4-methylthiophen-2-yl)methanamine]

IC50 [1, 5]: > 100 µM
Compound: N=C(N)c1ccc(S(=O)(=O)c2ccccc2)s1 [6d, 5-(Phenylsulfonyl)thiophene-2-carboximidamide Hydrochloride]

IC50 [1, 5]: 27 µM and 31 µM
Compound: CCNS(=O)(=O)c1ccc(CN)s1 [2c, 5-(Aminomethyl)-N-ethylthiophene-2-sulfonamide]

LOX inhibition (in words) [1]: no inhibitory activity
IC50 [1, 5]: > 100 µM
Compound: NCc1cscc1S(=O)(=O)c1ccc2ccccc2c1 [7b, (4-(Naphthalen-2-ylsulfonyl)thiophen-3-yl)methanamine]

IC50 [1, 5]: 3.1 µM and 3.3 µM
Compound: NCc1ccc(S(=O)(=O)N2CCC[C@H]2CO)s1 [2e, (S)-(1-(5-(Aminomethyl)thiophen-2-ylsulfonyl)pyrrolidin-2-yl)methanol]

IC50 [1, 5]: 2.5 µM and 2.7 µM
Compound: NCc1ccc(S(=O)(=O)N2CCCc3ccccc32)s1 [2h, (5-(3,4-Dihydroquinolin-1(2H)-ylsulfonyl)thiophen-2-yl)methanamine]

AUC(PO) [3]: 1.4 µM·h
Cmax [3]: 1.6 µM
MLM stability (%) [2]: 41%
Compound: CS(=O)(=O)c1ccc(S(=O)(=O)c2ccc(CN)s2)cc1-c1ccccc1 [9k, (5-((6-(Methylsulfonyl)-[1,1′-biphenyl]-3-yl)sulfonyl)thiophen-2-yl)methanamine]

IC50 [1, 5]: 15 µM
Compound: NCc1ccc(S(=O)(=O)NCc2ccccc2)s1 [4c, 5-(Aminomethyl)-N-benzylthiophene-2-sulfonamide]

IC50 [1, 5]: 1.9 µM
fold more potent than HTS hit 2a (LOX IC50) [1]: ~10 fold
Compound: NCc1ccc(S(=O)(=O)N2CCc3ccccc32)s1 [2g, (5-(Indolin-1-ylsulfonyl)thiophen-2-yl)methanamine]

IC50 [1, 5]: 14 µM and 27 µM
Compound: NCc1ccc(Sc2ccccc2)s1 [4b, (5-(Phenylthio)thiophen-2-yl)methanamine Hydrochloride]

AUC(PO) [3]: 0.36 µM·h
Cmax [3]: 0.38 µM
MLM stability (%) [2]: 91%
Compound: CC(=O)NCCS(=O)(=O)c1ccc(S(=O)(=O)c2ccc(CN)s2)cc1.Cl [8j, N-(2-((4-((5-(Aminomethyl)thiophen-2-yl)sulfonyl)phenyl)sulfonyl)ethyl)-acetamide Hydrochloride]

IC50 [1, 5]: 3.1 µM
Compound: CN1CCCN(S(=O)(=O)c2ccc(CN)s2)CC1 [2k, (5-(4-Methyl-1,4-diazepan-1-ylsulfonyl)thiophen-2-yl)methanamine]

IC50 [1, 5]: 13 µM
Compound: CS(=O)(=O)c1ccc(-c2ccc(CN)s2)cc1 [4e, (5-(4-(Methylsulfonyl)phenyl)thiophen-2-yl)methanamine Hydrochloride]

IC50 [1, 5]: 40 µM and 45 µM
Compound: NCc1ccc(C(=O)NCc2ccccc2)o1 [5e, 5-(Aminomethyl)-N-benzylfuran-2-carboxamide]

MLM stability (%) [2]: 67%
Compound: CS(=O)(=O)c1ccc(S(=O)(=O)c2ccc(CN)s2)cc1 [3i, (5-(4-(Methylsulfonyl)phenylsulfonyl)thiophen-2-yl)methanamine]

IC50 [1, 5]: 25 µM
fold weaker than aminomethylenethiophene counterpart 5b (LOX) ([1]; vs 5b): ~10 fold
Compound: Cl.Cl.NCc1ccc(S(=O)(=O)Cc2ccccc2)nc1 [5a, (6-(Benzylsulfonyl)pyridin-3-yl)methanamine Dihydrochloride]

IC50 [1, 5]: 20 µM and 25 µM
Compound: NCc1ccc(S(=O)(=O)N2CCOCC2)s1 [2i, (5-(Morpholinosulfonyl)thiophen-2-yl)methanamine]

IC50 [1, 5]: 20 µM and 25 µM
Compound: NCc1ccc(C(=O)NCc2ccccc2)s1 [4d, 5-(Aminomethyl)-N-benzylthiophene-2-carboxamide]

IC50 [1, 5]: > 100 µM
Compound: CNCc1ccc(S(=O)(=O)c2ccccc2)s1 [6a, N-Methyl-1-(5-(phenylsulfonyl)thiophen-2-yl)methanamine Hydrochloride]

Compound: CS(=O)(=O)c1cc(-c2ccccc2)cc(S(=O)(=O)c2ccc(CN)s2)c1 [9f]
IC50 [4]: > 100 µM

AUC(PO) [3]: 4.2 µM·h
Cmax [3]: 15 µM
MLM stability (%) [2]: 100%
Compound: NCc1ccc(S(=O)(=O)c2ccc3ccccc3c2)s1 [3g, (5-(Naphthalen-2-ylsulfonyl)thiophen-2-yl)methanamine]

IC50 [1, 5]: 9.4 µM and 12.7 µM
fold more potent than HTS hit 2a (LOX IC50) [1]: ~2 fold
Compound: Cl.Cl.NCc1ccc(S(=O)(=O)N2CCCNCC2)s1 [2j, (5-(1,4-Diazepan-1-ylsulfonyl)thiophen-2-yl)methanamine Dihydrochloride]

AUC(PO) [3]: 0.46 µM·h
Cmax [3]: 1.5 µM
MLM stability (%) [2]: 63%
Compound: NCc1ccc(S(=O)(=O)c2cccc(S(=O)(=O)N3CCC[C@H]3CO)c2)s1 [8e, (S)-(1-((3-((5-(Aminomethyl)thiophen-2-yl)sulfonyl)phenyl)sulfonyl)pyrrolidin-2-yl)methanol]

IC50 ([1]; high-throughput screen hit, read-out: mean IC50 (LOX, HTS hit)): 19 µM
IC50 [1, 5]: 17 µM and 21 µM
Compound: NCc1ccc(S(=O)(=O)N2CCCCC2)s1 [2a, (5-(Piperidin-1-ylsulfonyl)thiophen-2-yl)methanamine]

IC50 [1, 5]: 70 µM and 72 µM
Compound: CN(C)S(=O)(=O)c1ccc(CN)s1 [2b, 5-(Aminomethyl)-N,N-dimethylthiophene-2-sulfonamide]

AUC(PO) [3]: 0.22 µM·h
Cmax [3]: 0.83 µM
MLM stability (%) [2]: 59%
Compound: NCc1ccc(S(=O)(=O)c2cccc(S(=O)(=O)N3CCCC3)c2)s1 [8d, (5-((3-(Pyrrolidin-1-ylsulfonyl)phenyl)sulfonyl)thiophen-2-yl)methanamine]

IC50 [1, 5]: 3.8 µM
Compound: NCc1ccc(S(=O)(=O)N2CCCC2c2ccccc2)s1 (stereo not shown) [2f, (5-(2-Phenylpyrrolidin-1-ylsulfonyl)thiophen-2-yl)methanamine]

LOX inhibition (in words) [1]: no inhibitory activity
IC50 [1, 5]: > 100 µM
Compound: NCc1sccc1S(=O)(=O)c1ccc2ccccc2c1 [7a, (3-(Naphthalen-2-ylsulfonyl)thiophen-2-yl)methanamine]

AUC(PO) [3]: 2.8 µM·h
Cmax [3]: 9.6 µM
MLM stability (%) [2]: 90%
Compound: Cl.Cl.Cn1cc(-c2cc(S(=O)(=O)c3ccc(CN)s3)ccc2S(C)(=O)=O)cn1 [9j, (5-((3-(1-Methyl-1H-pyrazol-4-yl)-4-(methylsulfonyl)phenyl)sulfonyl)thiophen-2-yl)methanamine Dihydrochloride]
